Measurements reported in patent publication US5430023A, “Tripeptide antithrombotic agents” (Eli Lilly and Company, priority 1993, dated 1995).
Square brackets hold non-standard residues; d marks the D form. Peptide text beside a SMILES is read from it. * marks the point of attachment. dNMePhg = CN[C@@H](C(=O)O)c1ccccc1; dHpg = N[C@@H](C(=O)O)c1ccc(O)cc1; dChg = N[C@@H](C(=O)O)C1CCCCC1; dPhg = N[C@@H](C(=O)O)c1ccccc1; Boc = CC(C)(C)OC(=O)*

Columns and labels:
Assay type in all cases: biochemical
bovine thrombin [1] = biological target: T1, bovine thrombin (Bos taurus, UniProt P00735); assay: Inhibition of thrombin amidase activity (chromogenic substrate), bovine thrombin; details: apparent equilibrium constant inhibitor-thrombin, mean over a range of concentrations
T1 construct: 25 μl of bovine thrombin solution (0.21 mg/ml of thrombostat powder); purchased thrombostat powder
Procedure: The data in the table were obtained in an assay in which thrombin hydrolyzes the chromogenic substrate, N-benzoyl-D-phenylalanyl-L-valyl-L-arginyl-p-nitroanilide.
The assay was carried out in 50 μl buffer (0.03M Tris, 0.15M NaCl, pH 7.4) with 25 μl of bovine thrombin solution (0.21 mg/ml of thrombostat powder in 0.06M Tris, 0.3M NaCl, pH 7.4) and 150 μl of an aqueous solution of the chromogenic substrate at a concentration of 0.25 mg/ml. Solutions of test compound (25 μl) at various concentrations were added. […] Standard curves were constructed by plotting free thrombin concentration against hydrolysis rate. […] The amount of free inhibitor in each assay was calculated by subtracting the number of moles of bound thrombin from the number of moles of added inhibitor (test compound).
Kass was calculated for a range of concentrations of compounds and the mean value is reported in units of liter per mole.

bovine thrombin [2] = biological target: T1, bovine thrombin; assay: Plasma coagulation assay: thrombin time
Procedure: (§1) The anticoagulant activity of the compounds of the invention has been determined in standard tests. The following Table 2 presents the data obtained with representative compounds of the invention in tests used to determine prothrombin time, thrombin time and activated partial thromboplastin time (APTT). The numerical values in the table are the concentrations of the test compounds (ng/ml) required to prolong coagulation by 2-fold in the three tests. The thrombin time evaluation was carried out in plasma and separately determined in a buffer system at pH 7.5.
(§2) The data presented in Table 2 were obtained using a CoaScreener instrument from Tecan, Inc. in the assay protocols listed below.
50 μl bovine thrombin (2 NIH

[3] = system: plasma coagulation (Actin, CaCl2); assay: Plasma coagulation assay: APTT (activated partial thromboplastin time)
Procedure: as §1, §2

bovine thrombin [4] = biological target: T1, bovine thrombin; assay: Thrombin time in buffer (fibrinogen instead of plasma); details: Buffer (pH 7.5)
Procedure: as §1, §2
In the Thrombin Time determined in pH 7.4 buffer fibrinogen was used instead of plasma.

[5] = system: plasma coagulation (thromboplastin); assay: Plasma coagulation assay: prothrombin time
Procedure: The numerical values in the table are the concentrations of the test compounds (ng/ml) required to prolong coagulation by 2-fold in the three tests. The thrombin time evaluation was carried out in plasma and separately determined in a buffer system at pH 7.5.
as §2
50 μl thromboplastin (Dade)

Row | Molecule | Thrombin Amidase Kass × 10^6 (bovine thrombin [1]) | Thrombin Time: concentration required to prolong coagulation by 2fold (bovine thrombin [2]) [ng/mL] | APTT: concentration required to prolong coagulation by 2fold [3] [ng/mL] | Thrombin Time: concentration required to prolong coagulation by 2fold (bovine thrombin [4]) [ng/mL] | Prothrombin Time: concentration required to prolong coagulation by 2fold [5] [ng/mL]
1 | CC[C@@H](C(=O)N1CCC[C@H]1C(=O)N[C@H](C=O)CCCNC(=N)N)c1ccccc1 [(R)-α-Ethylphenylacetyl] | 7 × 10^6 1/mole | 115 | – | – | –
2 | CO[C@@H](C(=O)N1CCC[C@H]1C(=O)N[C@H](C=O)CCCNC(=N)N)c1ccccc1 [(R)-α-Methoxyphenylacetyl] | 4 × 10^6 1/mole | 139 | > 909 | 173 | –
3 | COc1ccc([C@@H](NC(C)=O)C(=O)N2CCC[C@H]2C(=O)N[C@H](C=O)CCCNC(=N)N)cc1 [Acetyl-D-(4-methoxy)phenylglycyl] | 15 × 10^6 1/mole | 460 | 2600 | – | 900
4 | CC(=O)O.CC(=O)O.CC(C)(C)OC(=O)N[C@@H](C(=O)N1CCC[C@H]1C(=O)N[C@H](C=O)CCCNC(=N)N)c1ccc2ccccc2c1 [Boc-D-2-naphthylglycyl, N-Boc-D-2-naphthylglycyl-Pro-Arg-H diacetate] | 22 × 10^6 1/mole | 230 | 1200 | 142 | 1200
5 | CC(C)(C)OC(=O)NC(C(=O)N1CCCC1C(=O)NC(C=O)CCCN=C(N)N)c1cccs1 [Boc-D-2-thienylglycyl] | 14 × 10^6 1/mole | – | – | – | –
6 | CC(=O)O.CC(=O)O.CC(C)(C)OC(=O)N[C@@H](C(=O)N1CCC[C@H]1C(=O)N[C@H](C=O)CCCNC(=N)N)c1ccc(O)cc1 [Boc-D-(4-hydroxy)phenylglycyl, N-Boc-D-(4-hydroxyphenylglycyl)-Pro-Arg-H diacetate] (Boc-[dHpg]-Pro-Arg-aldehyde) | 115 × 10^6 1/mole | 182 | 1091 | – | 1636
7 | COc1ccc([C@@H](NC(=O)OC(C)(C)C)C(=O)N2CCC[C@H]2C(=O)N[C@H](C=O)CCCNC(=N)N)cc1 [Boc-D-(4-methoxy)phenylglycyl] | 75 × 10^6 1/mole | 80 | 640 | – | –
8 | COc1ccc2cc([C@@H](NC(=O)OC(C)(C)C)C(=O)N3CCC[C@H]3C(=O)N[C@H](C=O)CCCNC(=N)N)ccc2c1 [Boc-D-(6-methoxy)-2-naphthylglycyl] | 6 × 10^6 1/mole | 460 | 2239 | 466 | 35489
9 | CC(C)(C)OC(=O)NC(C(=O)N1CCCC1C(=O)NC(C=O)CCCN=C(N)N)c1ccc(F)cc1 [Boc-D-Phg(4-Fluoro)] | 44 × 10^6 1/mole | – | – | – | –
10 | CC(C)(C)OC(=O)N[C@@H](C(=O)N1CCC[C@H]1C(=O)N[C@H](C=O)CCCNC(=N)N)C1CCCCC1 [Boc-D-cyclohexylglycyl] (Boc-[dChg]-Pro-Arg-aldehyde) | 120 × 10^6 1/mole | 79 | 748 | 60 | 522
11 | CC(C)(C)OC(=O)NC(Cc1ccccc1)C(=O)N1CCCC1C(=O)NC(C=O)CCCN=C(N)N [Boc-D-phenylalanyl, reference compound] | 21 × 10^6 1/mole | – | – | – | –
12 | CC(C)(C)OC(=O)N[C@@H](C(=O)N1CCC[C@H]1C(=O)N[C@H](C=O)CCCNC(=N)N)c1ccccc1.CC(C)(C)OC(=O)N[C@@H](C(=O)N1CCC[C@H]1C(=O)N[C@H](C=O)CCCNC(=N)N)c1ccccc1.O=S(=O)(O)O [Boc-D-phenylglycyl (sulfate salt), N-Boc-D-Phenylglycyl-L-Prolyl-L-Arginine aldehyde (Boc-D-Phg-Pro-Arg-H) hemisulfate] (Boc-[dPhg]-Pro-Arg-aldehyde) | 107 × 10^6 1/mole | – | – | – | –
13 | N=C(N)NCCC[C@@H](C=O)NC(=O)[C@@H]1CCCN1C(=O)[C@H]1CC2CCCCC2CN1.O=S(=O)(O)O (stereo partly drawn) [D-1,2,3,4,6,7,8-Perhydroisoquinolin-3-carbonyl-L-prolyl-L-arginal (sulfate)] | 25 × 10^6 1/mole | – | – | – | –
14 | N=C(N)NCCC[C@@H](C=O)NC(=O)[C@@H]1CCCN1C(=O)[C@@H]1NCCc2ccccc21.O=S(=O)(O)O [D-1,2,3,4-Tetrahydroisoquinolin-1-carbonyl-L-Prolyl-L-Arginine Aldehyde Sulfate] | 113 × 10^6 1/mole | – | – | – | –
15 | Cl.N=C(N)NCCC[C@@H](C=O)NC(=O)[C@@H]1CCCN1C(=O)[C@H]1Cc2ccccc2C(=O)N1 [D-1,2,3,4-tetrahydroisoquinolin-1-keto-3-carbonyl-L-prolyl-L-arginine aldehyde (hydrochloride)] | 6 × 10^6 1/mole | – | – | – | –
16 | N=C(N)NCCC[C@@H](C=O)NC(=O)[C@@H]1CCCN1C(=O)[C@H](N)c1ccccc1 [D-Phenylglycyl] (H-[dPhg]-Pro-Arg-aldehyde) | 75 × 10^6 1/mole | 91 | – | – | –
17 | CN[C@@H](C(=O)N1CCC[C@H]1C(=O)N[C@H](C=O)CCCNC(=N)N)c1ccccc1 [N^α -Methyl-D-phenylglycyl (sulfate), N-methyl-D-phenylglycyl-L-prolyl-L-arginine aldehyde] (H-[dNMePhg]-Pro-Arg-aldehyde) | 80 × 10^6 1/mole | 92 | > 909 | 67 | 899
18 | N^α -acetyl-1-aminocyclohexane-1-carbonyl-L-prolyl-L-arginine Aldehyde (Hydrochloride) | 0.2 × 10^6 1/mole | – | – | – | –
19 | N^α -ethylcarbamate-1-amino-1-cyclohexane-carbonyl-L-prolyl-L-arginine Aldehyde (Hydrochloride) | 1.5 × 10^6 1/mole | – | – | – | –
